From ChEMBL document CHEMBL1150671, “Online analysis of xestodecalactones A-C, novel bioactive metabolites from the fungus Penicillium cf. montanense and their subsequent isolation from the sponge Xestospongia exigua” (2002)
The source made the active and inactive calls. The calls are words filed in the database; no cut-off is given here.

Columns and labels:
Bacillus subtilis = assay: Antibacterial activity against Bacillus subtilis 168; type: functional, organism-based; details: subsp. subtilis str. 168
Staphylococcus aureus = assay: Antibacterial activity against Staphylococcus aureus ATCC 25923; type: functional, organism-based
Escherichia coli [1] = assay: Antibacterial activity against Escherichia coli ATCC 25922; type: functional, organism-based
Escherichia coli [2] = assay: Antibacterial activity against Escherichia coli HB 101; type: functional, organism-based
Candida albicans [3] = assay: Antifungal activity against Candida albicans at 100 umol by agar diffusion assay; type: functional
Candida albicans [4] = assay: Antifungal activity against Candida albicans at 50 umol by agar diffusion assay; type: functional
Candida albicans [5] = assay: Antifungal activity against Candida albicans at 20 umol by agar diffusion assay; type: functional

SMILES | Activity (Bacillus subtilis) | Activity (Staphylococcus aureus) | Activity (Escherichia coli [1]) | Activity (Escherichia coli [2]) | inhibition zone (IZ) (Candida albicans [3]) [mm] | inhibition zone (IZ) (Candida albicans [4]) [mm] | inhibition zone (IZ) (Candida albicans [5]) [mm]
C[C@@H]1CCCC(=O)C[C@@H](O)CC(=O)O1 | inactive | inactive | inactive | inactive | – | – | –
CC1C/C=C/C(=O)c2c(O)cc(O)cc2CC(=O)O1 (centres undefined) | inactive | inactive | inactive | inactive | – | – | –
C[C@H]1CCC[C@@H](O)CC(=O)c2c(O)cc(O)cc2CC(=O)O1 | inactive | inactive | inactive | inactive | – | – | –
C[C@H]1C[C@H](O)CC(=O)c2c(O)cc(O)cc2CC(=O)O1 | inactive | inactive | inactive | inactive | – | – | –
C[C@H]1CCC[C@H](O)CC(=O)c2c(O)cc(O)cc2CC(=O)O1 | inactive | inactive | inactive | inactive | – | – | –
C[C@@H]1C[C@H](O)CC(=O)c2c(O)cc(O)cc2CC(=O)O1 [XESTODECALACTONE B] | inactive | inactive | inactive | inactive | 25 | 12 | 7
C[C@@H]1C[C@H](O)CCCC(=O)CC(=O)O1 | inactive | inactive | inactive | inactive | – | – | –
C[C@@H]1CCCC(=O)c2c(O)cc(O)cc2CC(=O)O1 | inactive | inactive | inactive | inactive | – | – | –
C[C@H]1CCCCCC(=O)c2c(O)cc(O)cc2CC(=O)O1 | inactive | inactive | inactive | inactive | – | – | –
